Test results published in patent publication US11801242B2, “Compositions and methods for adjuvant cancer therapeutics” (DUKE UNIVERSITY, priority 2018, dated 2023).

The compounds below were run on REV1 CTD-REV7 interaction (assay: ELISA assay probing the REV1 CTD-REV7 interaction). Conditions: ratio of test compound IC50 to RE01 IC50.
Format: binding, mouse
Procedure: The ELISA assay for probing the REV1 CTD-REV7 interaction was carried out by immobilizing 50 nM His8-tagged REV7/3 in 200 μL phosphate-buffered saline (PBS, Gibco) containing 0.2% BSA in a Ni-NTA coated 96-well plate (HisSorb, Qiagen) for 30 minutes. Unbound His8-tagged REV7/3 was removed by washing the wells four times with PBS containing 0.05% Tween-20. […] After incubation for 30 minutes, the wells were washed four times with PBS containing 0.05% Tween-20 to remove the unbound FLAG-tagged POL κ RIR-REV1 CTD. A solution of the anti-FLAG horseradish peroxidase (HRP)-conjugated antibody (Sigma-Aldrich) in PBS containing 0.2% BSA was then added to the wells. After incubating for 1 hour, the antibody was washed off four times with PBS containing 0.05% Tween-20. The 3,3′,5,5′-tetramethylbenzedine (TMB) substrate (SureBlue TMB, Seracare) was added to the wells. After incubation of 20-30 minutes, the reaction was quenched with 1 M HCl. A SpectraMax plate reader (Molecular Devices) was used to measure absorbance at 450 nm.
`Cc1ccc([N+](=O)[O-])c2c(=O)c(C(=O)CC(C)C)c(Nc3ccc(Cl)cc3Cl)[nH]c12` [RE36, 2-((2,4-dichlorophenyl)amino)-8-methyl-3-(3-methylbutanoyl)-5-nitroquinolin-4(1H)-one] was tested, and the “Relative IC50 Ratio” value was “C (C represents a ratio of test compound IC50 to RE01 IC50 between 1.5-10)”.
In the case of `O=C(O)/C(O)=C/C(=O)c1c(Nc2ccc(Cl)cc2Cl)[nH]c2c(Cl)ccc([N+](=O)[O-])c2c1=O` [RE13, (Z)-4-(8-chloro-2-((2,4-dichlorophenyl)amino)-5-nitro-4-oxo-1,4-dihydroquinolin-3-yl)-2-hydroxy-4-oxobut-2-enoic acid], the “Relative IC50 Ratio” value is reported as “A (A represents a ratio of test compound IC50 to RE01 IC50 of less than 0.8)”.
For `CC(=NO)c1c(Nc2ccc(Cl)cc2Cl)[nH]c2c(Cl)ccc([N+](=O)[O-])c2c1=O` [RE14, 8-chloro-2-((2,4-dichlorophenyl)amino)-3-(1-(hydroxyimino)ethyl)-5-nitroquinolin-4(1H)-one], the “Relative IC50 Ratio” value was “B (B represents a ratio of test compound IC50 so to RE1 IC50 between 0.8 and 1.5)”.
In the case of `CC(C)CC(=O)c1c(Nc2ccc(Br)cc2Br)[nH]c2c(Cl)ccc([N+](=O)[O-])c2c1=O` [RE04, 8-chloro-2-((2,4-dibromophenyl)amino)-3-(3-methylbutanoyl)-5-nitroquinolin-4(1H)-one], the “Relative IC50 Ratio” value is reported as “B (B represents a ratio of test compound IC50 so to RE1 IC50 between 0.8 and 1.5)”.
In the case of `CC(=O)c1c(Nc2ccc(Cl)cc2Cl)[nH]c2c(Cl)ccc([N+](=O)[O-])c2c1=O` [RE12, 3-acetyl-8-chloro-2-((2,4-dichlorophenyl)amino)-5-nitroquinolin-4(1H)-one], the “Relative IC50 Ratio” value is reported as “B (B represents a ratio of test compound IC50 so to RE1 IC50 between 0.8 and 1.5)”.
`COc1ccc(Cl)c2[nH]c(Nc3ccc(Cl)cc3Cl)c(C(=O)CC(C)C)c(=O)c12` [RE29, 8-chloro-2-((2,4-dichlorophenyl)amino)-5-methoxy-3-(3-methylbutanoyl)quinolin-4(1H)-one] was tested, and the “Relative IC50 Ratio” value was “A (A represents a ratio of test compound IC50 to RE01 IC50 of less than 0.8)”.
With `CC(C)CC(=O)c1c(Nc2ccc(Cl)cc2Cl)[nH]c2c(Cl)ccc(C(=O)O)c2c1=O` [RE09, 8-chloro-2-((2,4-dichlorophenyl)amino)-3-(3-methylbutanoyl)-4-oxo-1,4-dihydroquinoline-5-carboxylic acid] the “Relative IC50 Ratio” value was “B (B represents a ratio of test compound IC50 so to RE1 IC50 between 0.8 and 1.5)”.
`CC(C)CC(=O)c1c(Nc2ccccc2)[nH]c2c(Cl)ccc([N+](=O)[O-])c2c1=O` [RE16, 8-chloro-3-(3-methylbutanoyl)-5-nitro-2-(phenylamino)quinolin-4(1H)-one] was tested, and the “Relative IC50 Ratio” value was “C (C represents a ratio of test compound IC50 to RE01 IC50 between 1.5-10)”.
With `CC(C)CC(=O)c1c(Nc2ccc(Cl)cc2)[nH]c2c(Cl)ccc([N+](=O)[O-])c2c1=O` [RE20, 8-chloro-2-((4-chlorophenyl)amino)-3-(3-methylbutanoyl)-5-nitroquinolin-4(1H)-one] the “Relative IC50 Ratio” value was “C (C represents a ratio of test compound IC50 to RE01 IC50 between 1.5-10)”.
For `CC(C)CC(=O)c1c(Nc2ccc(Cl)cc2C(F)(F)F)[nH]c2c(Cl)ccc([N+](=O)[O-])c2c1=O` [RE18, 8-chloro-2-((4-chloro-2-(trifluoromethyl)phenyl)amino)-3-(3-methylbutanoyl)-5-nitroquinolin-4(1H)-one], the “Relative IC50 Ratio” value was “A (A represents a ratio of test compound IC50 to RE01 IC50 of less than 0.8)”.
`CC(C)CC(=O)c1c(Nc2ccc(Cl)cc2Cl)[nH]c2c(Br)ccc([N+](=O)[O-])c2c1=O` [RE39, 8-bromo-2-((2,4-dichlorophenyl)amino)-3-(3-methylbutanoyl)-5-nitroquinolin-4(1H)-one] was tested, and the “Relative IC50 Ratio” value was “B (B represents a ratio of test compound IC50 so to RE1 IC50 between 0.8 and 1.5)”.
For `CC(C)CC(=O)c1c(Nc2ccc(F)cc2F)[nH]c2c(Cl)ccc([N+](=O)[O-])c2c1=O` [RE24, 8-chloro-2-((2,4-difluorophenyl)amino)-3-(3-methylbutanoyl)-5-nitroquinolin-4(1H)-one], the “Relative IC50 Ratio” value was “C (C represents a ratio of test compound IC50 to RE01 IC50 between 1.5-10)”.
For `CC(C)CC(=O)c1c(Nc2ccccc2Cl)[nH]c2c(Cl)ccc([N+](=O)[O-])c2c1=O` [RE23, 8-chloro-2-((2-chlorophenyl)amino)-3-(3-methylbutanoyl)-5-nitroquinolin-4(1H)-one], the “Relative IC50 Ratio” value was “B (B represents a ratio of test compound IC50 so to RE1 IC50 between 0.8 and 1.5)”.
With `CC(C)CC(=O)c1c(Nc2ccc(Cl)cc2Cl)[nH]c2c(F)ccc([N+](=O)[O-])c2c1=O` [RE38, 2-((2,4-dichlorophenyl)amino)-8-fluoro-3-(3-methylbutanoyl)-5-nitroquinolin-4(1H)-one] the “Relative IC50 Ratio” value was “B (B represents a ratio of test compound IC50 so to RE1 IC50 between 0.8 and 1.5)”.
`COc1ccc([N+](=O)[O-])c2c(=O)c(C(=O)CC(C)C)c(Nc3ccc(Cl)cc3Cl)[nH]c12` [RE37, 2-((2,4-dichlorophenyl)amino)-8-methoxy-3-(3-methylbutanoyl)-5-nitroquinolin-4(1H)-one] was tested, and the “Relative IC50 Ratio” value was “C (C represents a ratio of test compound IC50 to RE01 IC50 between 1.5-10)”.
`CC(C)CC(=O)c1c(Nc2ccc(Cl)cc2Cl)[nH]c2c(Cl)ccc(O)c2c1=O` [RE30, 8-chloro-2-((2,4-dichlorophenyl)amino)-5-hydroxy-3-(3-methylbutanoyl)quinolin-4(1H)-one] was tested, and the “Relative IC50 Ratio” value was “C (C represents a ratio of test compound IC50 to RE01 IC50 between 1.5-10)”.
With `CC(C)CC(=O)c1c(Nc2ccc(Cl)cc2Cl)[nH]c2c(Cl)ccc(C(F)(F)F)c2c1=O` [RE26, 8-chloro-2-((2,4-dichlorophenyl)amino)-3-(3-methylbutanoyl)-5-(trifluoromethyl)quinolin-4(1H)-one] the “Relative IC50 Ratio” value was “C (C represents a ratio of test compound IC50 to RE01 IC50 between 1.5-10)”.
`CC(C)CC(=O)c1c(Nc2ccc(C(=O)O)cc2Cl)[nH]c2c(Cl)ccc([N+](=O)[O-])c2c1=O` [RE06, 3-chloro-4-((8-chloro-3-(3-methylbutanoyl)-5-nitro-4-oxo-1,4-dihydroquinolin-2-yl)amino)benzoic acid] was tested, and the “Relative IC50 Ratio” value was “C (C represents a ratio of test compound IC50 to RE01 IC50 between 1.5-10)”.
`CC(C)CC(=O)c1c(Nc2ccc(C(C)C)cc2)[nH]c2c(Cl)ccc([N+](=O)[O-])c2c1=O` [RE21, 8-chloro-2-((4-isopropylphenyl)amino)-3-(3-methylbutanoyl)-5-nitroquinolin-4(1H)-one] was tested, and the “Relative IC50 Ratio” value was “C (C represents a ratio of test compound IC50 to RE01 IC50 between 1.5-10)”.
`CC(C)CC(=O)c1c(Nc2ccc(Cl)cc2Cl)[nH]c2c(Cl)ccc(N)c2c1=O` [RE11, 5-amino-8-chloro-2-((2,4-dichlorophenyl)amino)-3-(3-methylbutanoyl)quinolin-4(1H)-one] was tested, and the “Relative IC50 Ratio” value was “C (C represents a ratio of test compound IC50 to RE01 IC50 between 1.5-10)”.
With `CC(C)CC(=O)c1c(Nc2ccc(Cl)cc2Cl)[nH]c2c(C(=O)O)ccc(Cl)c2c1=O` [RE08, 5-chloro-2-((2,4-dichlorophenyl)amino)-3-(3-methylbutanoyl)-4-oxo-1,4-dihydroquinoline-8-carboxylic acid] the “Relative IC50 Ratio” value was “B (B represents a ratio of test compound IC50 so to RE1 IC50 between 0.8 and 1.5)”.
For `CC(C)CC(=O)c1c(Nc2ccc3ccccc3c2)[nH]c2c(Cl)ccc([N+](=O)[O-])c2c1=O` [RE19, 8-chloro-3-(3-methylbutanoyl)-2-(naphthalen-2-ylamino)-5-nitroquinolin-4(1H)-one], the “Relative IC50 Ratio” value was “B (B represents a ratio of test compound IC50 so to RE1 IC50 between 0.8 and 1.5)”.
